{
  "source": "patent US20110201105A1",
  "about": "“LACTATION-ASSOCIATED POLYPEPTIDES” (Dairy Australia Limited, priority 2007, published 2011)",
  "key": {"[1]": {"system": "HSC-2 oral epithelial cells", "assay": "Cell viability assay to assess anti- and pro-apoptotic effects (vinblastine, Alamar Blue)", "format": "cell-based", "settings": "HSC-2 cells", "protocol": "Plasmids containing Tammar wallaby LAMs were directionally cloned into the expression vector pCMV Sport 6.0, and then transfected into the human kidney cell line HK293. A total of 1 μg of LAM-containing plasmid DNA and 10 ng of pEGFP-C1 plasmid was introduced into 70% confluent HK293 cells in 2 cm^2 wells containing 500 ul of opti-MEM-1 media. Transfection success was assessed by observing green fluorescence of cells by fluorescent microscopy. After 48 hours conditioned media containing the secreted polypeptide was collected and frozen at −20° C. The media containing the secreted polypeptides was then used directly in a variety of bioactivity assays. For the assays described below, samples of secreted polypeptides were aliquoted into individual wells of 96 or 384 well plates and stored, prior to assaying, either frozen or lyophilized.\nA negative control created by transfection with an insertless vector was used in all assays. For the assays described in Examples 4A, 4B, 4C and 4D results for samples were in the form of relative fluorescence units (RFU) as described herein. […] In some cases, RFU less than two standard deviations from the mean were considered significant if the LAM sample in question produced a positive result in another assay.\nVinblastine is a commonly used cytotoxic agent used in chemotherapy. It induces apoptosis in a wide variety of cell types. Caspase activation and DNA fragmentation are hallmarks of the apoptotic process.\nAliquots of the secreted polypeptide samples in 96 well plates were pipetted onto HSC-2 oral epithelial cells and the cells left for 24 hours. After this time, the cells were treated with vinblastine to induce apoptosis. After a further 48 hours, the cells were analyzed for survival using a vital dye, namely Alamar Blue (resazurin) fluorescent dye (TGR BioSciences Pty Ltd, Adelaide, Australia). This dye method is a TGR proprietary assay technology and as such would be known by a person skilled in the art. Internal controls for induction of cell death via apoptosis as well as assay performance were also included on each plate. Cell survival measurements with this technique reflected the degree of apoptosis."}, "MDA-MB-231 cells": {"system": "MDA-MB-231 cells", "assay": "MDA-MD-231 Matrigel outgrowth assay", "format": "cell-based", "settings": "MDA-MB-231 cells on Matrigel, after 5 days, compared to control (OPTIMEM)", "protocol": "FIG. 14: Matrigel outgrowth assay. Monolayers of cells (MDA-MD-MB231) were grown to 80% confluence and collected during log phase. 5×10^3 cells were added per well (96 well format) on top of preset Matrigel (50 ul). 50 ul of bioactive supematant was added per well. Colony outgrowth was monitored over the course of the experiment and photographed after 2 (FIG. 14A) and 5 (FIG. 14B) days.\nMonolayers of cells (MDA-MD-MB231) were grown in DMEM+10% FCS to 80% confluence and collected during log phase. Cells were removed from plastic using versene/trypsin (2 min/370C) and resuspended in 10 ml media. Cell were washed thrice with PBS and centrifugation. 5×10^3 cells were added per well (96 well format) on top of preset Matrigel (50 ul). 50 ul of bioactive supernatant was added per well. Colony outgrowth was monitored over the course of the experiment and photographed after 2 and 5 days."}},
  "data": [
    {"substance": "LAM 13: PLA2G1B; tammar wallaby polypeptide SEQ ID NO 43, bovine polypeptide SEQ ID NO 103", "values": [
      {"measurement": "RFU (anti-apoptotic activity)", "setting": "[1]; vinblastine, Alamar Blue, Mean RFU 679787, SD RFU 39919, negative control 696444 RFU", "value": 779746, "unit": "RFU"},
      {"measurement": "anti- or pro-apoptotic activity (RFU versus mean)", "setting": "[1]; text summary of Tables 8-11", "value": "anti-apoptotic activity"},
      {"measurement": "proliferation of cells", "setting": "MDA-MB-231 cells", "value": "increased proliferation of cells"}
    ]}
  ]
}
